Test results taken from patent US20260258471A1, “SYSTEMS AND METHODS FOR MICROCOLONY GROWTH AND MICROBIAL CELL CHARACTERIZATION” (priority 2018, published 2026).
In brackets after ≈: the same amount, converted by molar mass.

Legend:
Type in all cases: cell-based
[1] = system: Methicillin-resistant Staphylococcus aureus (MRSA 111 with not strong resistance); test: thin strip type LD-AST on clean suspension and positive blood culture
Description: Methicillin-resistant Staphylococcus aureus (MRSA 111 with not strong resistance) was spiked into 10 mL of whole blood samples at the nominal concentration of 5-10 CFU/ml. Then, an FA Plus aerobic blood culture bottles were inoculated with 10 mL of spiked whole blood and incubated at 37° C. until the culture turns positive. At this time, 30 μL of glycerol stock of the bacterial cell was inoculated in 3 mL of TSB and incubated at 37° C. for 3 hr with shaking at 150 rpm. Based on OD measurements, serial dilutions of the respective bacteria were prepared in TSB at a nominal concentration of 10^5 CFU/mL. An aliquot of the positive blood sample was diluted in TSB by 1000-fold. The two samples were simultaneously tested for susceptibility against Oxacillin with “thin strip” type LD-AST. The results, which are presented in FIG. 30, indicate similar MIC value of 1 μg/mL.

Escherichia coli [2] = test: conventional microdilution methodology (reference)
Description: (§1) Intermediate twofold dilutions of antimicrobial agents in broth (Tryptic soy, and in some cases Brain Heart Infusion). 100 μL of the antimicrobial agent/broth solutions were dispensed into each well of 96-well plates in triplicates. Then, to each well 10 μL of the 5×10^6 CFU/mL cell suspension, which was prepared according to the method of example 5, was added. The plate was sealed and placed in the incubator at 35-37° C. for 16-24 hours for MIC value to be determined.

Escherichia coli [3] = test: LD-AST (local diffusion antimicrobial susceptibility testing) on annular-disk microwell strips
Description: In one case, an LD-AST test strip was fabricated following the method of Examples 9A and 10, coating different concentrations of Norfloxacin on the annular disks in 0-16 μg range. Three types of strips were prepared: low volume agar type with 80 μL of gel per microwell, medium volume agar type with 150 μL of gel per microwell, and high-volume agar type with 350 μL of gel per microwell. The corresponding gel thickness was respectively 2 mm, 4 mm, and 9 mm. The annular disks were then placed on the gels. The images of the microwell strip, for the case of low volume agar type, is presented in FIGS. 23A and 23B, where 220, 221, 222, and 223 respectively, refer to the drug impregnated annular disc, the drug exposure region, the guiding ring, and the gel. 1 μL of Escherichia coli cell suspension, which had been prepared according to the method of Example 12, was dispensed into the ROI of each LD-AST unit. The strips were incubated at 37° C. and their ROI were imaged by an epi-illuminated microscope having a 5× objective once every hour. These images are presented in FIGS. 24A-24C (low volume gel), 25A-C (medium volume gel), and 26A-C (high volume gel) for incubation times of t=3hours, t=4hours and t=overnight, respectively.
The labels in FIGS. 24A-24C show the mass of the of the antimicrobial agent that was coated on the annular disk during preparation. […] Despite this time variation, an effective antimicrobial agent concentration may be associated with each microwell. This effective antimicrobial agent concentration may be estimated, for example, by modeling the diffusion of the antimicrobial agent, as in FIG. 21A, or, for example, by comparing the results of the LD-AST assay to a reference assay such as broth microdilution assay.
In the case of low volume gels (FIG. 24A-24C), since the antimicrobial agent is expected rapidly and efficiently diffuse throughout the volume of the solid phase growth medium, and since it is expected that the antimicrobial agent diffuses nearly completely from the annular disk, the effective antimicrobial agent concentration may be estimated by dividing the mass of the antimicrobial agent that was provided on the annular disk by the volume of the gel. […] Accordingly, the effective antimicrobial agent concentration for the case low-volume gels of FIGS. 24A-24C was estimated to be 0.25 times of the drug mass that was impregnated on the disk. For instance, the drug concentration at the drug exposure region of the annular disk loaded by 16 μg of Norfloxacin is 4 μg/mL.
Comparing FIGS. 24B and 24C, one can observe (or computationally determine) that for the LD-AST unit labeled by 0.5 μg (having an estimated effective concentration of 0.1 μg/ml), there appears to be a lack of visible growth between 3 and 4 hours of incubation. This halting in growth was verified by imaging the ROIs after overnight culture, as illustrated in FIG. 24C. As a result, the MIC value for this test was estimated as 0.1 μg/mL. […]
FIG. 25A-25C and 26A-26C, respectively, correspond to intermediate volume (gel volume of 150 μL in microwell) and high volume (gel volume of 350 μL in microwell) cases. In these cases, due to the larger temporal variation in concentration during incubation, an effective antimicrobial agent concentration may be determined by correlating the observed results with a reference microdilution assay. […]

Escherichia coli [4] = test: Vitek 2 (Biomerieux) reference AST
Staphylococcus aureus [5] = test: broth microdilution AST according to Example 11
Description: as §1

Staphylococcus aureus [6] = test: LD-AST on annular-disk microwell strips
Description: In this case, the cell proliferation at the borderline LD-AST unit, such as the one labeled 12 μg, would be preferably determined by image processing. For example, time-lapse microscopic images can be acquired are aligned and difference images (obtained via subtraction of aligned images) may be processed to detect evidence of growth.
In order to further illustrate the insensitivity of the LD-AST to variations of the antimicrobial agent concentration at the ROIs during the first hour of the assay, the assay was performed in two different protocols; a first direct protocol involving immediate inoculation of the microbial cell suspension after contacting the annular disks with the solid phase growth medium, and a second delayed protocol in which the microbial cell suspension was inoculated 1 hour after contacting the annular disks with the solid phase growth medium.
Blank AST paper disks (Hardy Diagnostics, Z7121) that were 6.35 mm in diameter and 0.75 mm thick, were modified to include a 3 mm hole in the center.
Each paper disk has the capacity to absorb approximately 20 μL of liquid before being saturated. For each antibiotic, a two-fold serial dilution in water was made which included concentrations near its suspected MIC value. The disks were separated into individual wells of a 96-well microplate, and then 20 μL of each antibiotic dilution was pipetted over paper disks ensuring that the entire disk was evenly wetted. After incubation for about 20 minutes at room temperature, the disks in the microplate were dried in vacuum desiccator. Alternatively, individual disk separated in the microplate well could be soaked in an excess volume (30 to 50 μL) of the antibiotic dilution. After incubation, the excess fluid is removed by pipette and dried in a vacuum desiccator. The microplate was then covered with an adhesive cover and stored at 4° C.
Tryptic soy agar blood base (Hardy Diagnostics C5221) was prepared with 1% defibrinated sheep's blood according to the manufacturer. While the agar was still warm (45 to 50° C.), it was pipetted into the wells of an 12×8-well strip plate. For “Thin-gel” case, approximately 50 μL of agar was dispensed into an individual well to give a gel thickness of ~1 mm. For the “mid-thick gel” case, approximately 150 μL of agar was dispensed to gel a gel thickness of ~3 mm. Finally, for the “thick gel” case, approximately 350 μL of agar was dispensed to gel a gel thickness of ~7 mm. The agar gels were then cooled to room temperature to solidify, and then either used immediately or stored at 4° C. with an adhesive cover over the wells to prevent gel drying. […]

Staphylococcus aureus [7] = test: Vitek 2 reference AST
S. aureus = test: antimicrobial dilution pipetted directly onto thin-type gel microwells (no annular disk); details: Staphylococcus aureus; 20 μL of two-fold dilutions pipetted onto thin-type microwells; 37° C. until control colonies visible
Description: In order to verify the observed difference between the MIC for the low-volume gel and the typical MIC values reported by EUCAST for S. aureus and Vancomycin was not caused by the geometry of the annular disk and its corresponding diffusion dynamics, the following experiment was performed. A two-fold serial dilution of the target antimicrobial agent was prepared in water. Then 20 μL of each dilution was pipetted onto the surface of “thin-type” microwells that were prepared according to the method of Example 10. After about 10 minutes, the antimicrobial agent solution had diffused into top of the gel. 1 μL of a microbial cell suspension was then added and together they were incubated at 37° C. until the microbial colonies at the control well (zero antimicrobial agent concentration) were visible. The MIC found in this manner was 3 μg/mL.

[8] = system: Candida albicans (ATCC 90028); test: LD-AST against fungal cells; details: thin strip LD-AST; images at 3 and 4 hours, verified overnight
Description: A series of LD-AST units having different levels of Amphotoricin B were prepared and tested against Candida albicans (ATCC 90028). […] Therefore, the MIC was determined to be 2 μg/mL. The conclusion of growth at the LD-AST unit corresponding to 1 μg/mL, though not easily noticed in FIG. 29 by visual inspection of t=3 and 4 incubation images, was verified by referring to the overnight incubation row in the figure.
To align imaging data acquired at different time points (2, 3, 4 and 5 hours after seeding), 2D-2D registration (only translation and rotation are permitted) with rigid transformation constrains was performed. The corresponding intensity feature points between the previous time point (tn-1 or tn-2) image, so-called reference, and each further image, so-called floating image, were automatically identified using the key-point detector SURF and used for aligning imaging date with respect to the reference data. Intensity features present at the reference image were classified as background while intensity features appearing on further images (cells/bugs) were classified as foreground. The position of given individual microcolonies have been marked in consecutive images. Setting the background allows enhanced detection of microcolonies and their growth.

## Cc1onc(-c2ccccc2)c1C(=O)N[C@@H]1C(=O)N2[C@@H]1SC(C)(C)[C@@H]2C(=O)O [Oxacillin]
[1]; Staphylococcus aureus, MRSA, clean cell suspension in TSB, nominal 10^5 CFU/mL
  MIC: 1 µg/mL (≈ 2.49 µM)
[1]; positive blood culture diluted in TSB by 1000-fold
  MIC value: 1 µg/mL (≈ 2.49 µM)

## CCn1cc(C(=O)O)c(=O)c2cc(F)c(N3CCNCC3)cc21 [Norfloxacin]
Escherichia coli [2]
  MIC value: 0.1 µg/mL (≈ 0.313 µM)
Escherichia coli [3]; Escherichia coli, low volume gel strip, no growth between 3 and 4 hours of incubation, verified overnight, read-out: MIC value (estimated effective concentration)
  MIC: 0.1 µg/mL (≈ 0.313 µM)
Escherichia coli [3]; LD-AST MIC, low volume gel
  classification of MIC per CLSI/EUCAST interpretation standards: S
Escherichia coli [3]; high volume (gel volume of 350 μL in microwell)
  antimicrobial mass label of the microwell at which microbial growth halts: 1 µg
Escherichia coli [3]; intermediate volume (gel volume of 150 μL in microwell)
  antimicrobial mass label of the microwell at which microbial growth halts: 1 µg
Escherichia coli [3]; low volume gel, between 3 and 4 hours of incubation
  antimicrobial mass coated on annular disk of the LD-AST unit showing lack of visible growth: 0.5 µg
Escherichia coli [4]
  susceptibility category reported by Vitek 2: S
Escherichia coli [4]; Escherichia coli, read-out: MIC value reported by Vitek 2
  MIC: ≤ 0.5 µg/mL

## CN[C@H](CC(C)C)C(=O)N[C@H]1C(=O)N[C@@H](CC(N)=O)C(=O)N[C@H]2C(=O)N[C@H]3C(=O)N[C@H](C(=O)N[C@H](C(=O)O)c4cc(O)cc(O)c4-c4cc3ccc4O)[C@H](O)c3ccc(c(Cl)c3)Oc3cc2cc(c3O[C@@H]2O[C@H](CO)[C@@H](O)[C@H](O)[C@H]2O[C@H]2C[C@](C)(N)[C@H](O)[C@H](C)O2)Oc2ccc(cc2Cl)[C@H]1O [Vancomycin]
Staphylococcus aureus [5]; Staphylococcus aureus, broth microdilution, Example 11
  MIC: 1.5 µg/mL (≈ 1.04 µM)
Staphylococcus aureus [5]; broth microdilution MIC
  classification of MIC according to CLSI: S
Staphylococcus aureus [6]; LD-AST MIC, thin type
  classification of MIC per CLSI interpretation standards: I
Staphylococcus aureus [6]; mid-thick strip, 4 hours after inoculation (FIG. 28)
  MIC, direct protocol versus delayed (1 hour) inoculation protocol: equal
Staphylococcus aureus [6]; mid-thick type, unit labeled 12 μg, verified by overnight incubation
  growth at borderline LD-AST unit (difference image of time-lapse images): continued to grow
Staphylococcus aureus [6]; thin type LD-AST unit (FIG. 27A), 3 and 4 hours incubation
  MIC value: 3 µg/mL (≈ 2.07 µM)
Staphylococcus aureus [7]
  susceptibility category from Vitek 2: S
Staphylococcus aureus [7]; Staphylococcus aureus, read-out: MIC value from Vitek 2
  MIC: 1 µg/mL (≈ 0.69 µM)
S. aureus
  MIC: 3 µg/mL (≈ 2.07 µM)

## Amphotoricin B
[8]
  MIC: 2 µg/mL
